# Data: publication PMC7862272, “Discovery of an ene-reductase for initiating flavone and flavonol catabolism in gut bacteria” (Nature Communications, 2021)
# T1: sgrIFR (Streptomyces griseus, UniProt B1W160)
# T1 construct: gene SGR_2256; expressed in E. coli BL21 from pET28a, activity of the cell culture
# T1 sequence (B1W160 1-332): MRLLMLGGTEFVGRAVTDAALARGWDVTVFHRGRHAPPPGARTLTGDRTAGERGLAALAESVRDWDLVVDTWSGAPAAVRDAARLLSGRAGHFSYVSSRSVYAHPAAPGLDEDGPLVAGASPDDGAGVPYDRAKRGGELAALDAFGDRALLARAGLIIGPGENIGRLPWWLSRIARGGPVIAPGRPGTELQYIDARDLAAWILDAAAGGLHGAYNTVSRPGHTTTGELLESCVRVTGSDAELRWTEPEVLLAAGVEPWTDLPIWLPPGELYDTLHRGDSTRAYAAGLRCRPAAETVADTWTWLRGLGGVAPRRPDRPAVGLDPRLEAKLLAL
# B1: FLR (flavone reductase) (Flavonifractor plautii 1_3_50AFAA) (protein)
# chain: MKILGISGGMRNGSNDGMCIEALMGAKEMGAEVEFIQLQNLHIEHCTGCTACVQSVLGGRGGKCVLKDDFDWLLDKMLDADGIVFSTPIFEKGATGLFHTITDRFGPRMDRGNNIIGTKIAEETGGTAPDPRILKDKVISFMSVGGSDWVTRTQCDAGMLALTPMWKVIDNEVFPWALSILVEDERVARAHQIGRNIAEAAKNIEHAQYQGDAGVCPHCHSRNFHLQDGKAICCLCGLEGEIHNESGKYSFTFPAEQLEHAHDTLSGKFIHGNDIKENTGKKIANMQTEKYKARQAAYRAFITATVPEKG
# notes: SeMet-labelled for crystals
# Columns and labels:
# FLR (flavone reductase) [1] = molecular target: T2, FLR (flavone reductase) (Flavonifractor plautii, UniProt A0A096D7X8); test: X-ray crystal structure (Se-SAD); assay type: binding; details: co-purified FMN at dimer interface
# T2 construct: gene HMPREF9460_03474; SeMet-labelled for crystals
# FLR (flavone reductase) [2] = molecular target: T2, FLR (flavone reductase); test: X-ray crystal structure, soaked SeMet crystal; assay type: binding; details: FMN bound, dimer interface
# sgrIFR = molecular target: T1, sgrIFR; test: conversion by E. coli expressing the enzyme; assay type: cell-based; details: product dihydrodaidzein
# [3] = molecular target: flavone reductase (FLR) from Flavonifractor plautii ATCC 49531 (Flavonifractor plautii ATCC 49531); test: SEC-MALS; Superdex-200 10/300; 100 mM NaCl, 20 mM Tris-HCl pH 7.9, 3 mM FMN, 3 mM DTT; 100 uL of FLR at ~5 mg/mL injected; room temperature
# purified protein = substrate: O=c1cc(-c2ccc(O)cc2)oc2cc(O)cc(O)c12; test: purified protein; details: pH 7.0, 37 °C, 5 mM NADH, 0.5 mM FMN, 5 μM Fre, 5% DMSO, anaerobic
# [4] = substrate: O=C1C[C@@H](c2ccc(O)cc2)Oc2cc(O)cc(O)c21; test: HPLC, steady-state kinetics, reverse reaction; assay type: biochemical, Flavonifractor plautii; details: pH 7.0, 37 °C, 0.5 mM FMN, 5% DMSO, reverse reaction (dehydrogenation to apigenin)
# From the text: HPLC, steady-state kinetics, reverse reaction on FLR (flavone reductase) | The determination of the Km and kcat values of FLR for naringenin
molecule,measurement,setting,value
Cc1cc2nc3c(=O)[nH]c(=O)nc-3n(C[C@H](O)[C@H](O)[C@H](O)COP(=O)(O)O)c2cc1C [FMN],X-ray crystal structure (Se-SAD),FLR (flavone reductase) [1],The cofactor molecule FMN binds at the dimer interface
O=c1cc(-c2ccc(O)cc2)oc2cc(O)cc(O)c12 [apigenin],"X-ray crystal structure, soaked SeMet crystal",FLR (flavone reductase) [2]; 2.55 Å,"solved the complex structures of FLR with various substrates, including apigenin, chrysin, and luteolin"
O=c1cc(-c2ccccc2)oc2cc(O)cc(O)c12 [chrysin],"X-ray crystal structure, soaked SeMet crystal",FLR (flavone reductase) [2]; 2.65 Å,"solved the complex structures of FLR with various substrates, including apigenin, chrysin, and luteolin"
O=c1c(-c2ccc(O)cc2)coc2cc(O)ccc12 [daidzein],conversion by E. coli expressing the enzyme,sgrIFR,they could convert daidzein (a main isoflavone) to dihydrodaidzein
O=c1cc(-c2ccc(O)c(O)c2)oc2cc(O)cc(O)c12 [luteolin],"X-ray crystal structure, soaked SeMet crystal",FLR (flavone reductase) [2]; 2.25 Å,"solved the complex structures of FLR with various substrates, including apigenin, chrysin, and luteolin"
flavone reductase (FLR) from Flavonifractor plautii ATCC 49531 (enzyme),stoichiometry N,[3],2
B1,Km,purified protein,8.36 ± 1.34 µM
same,kcat,purified protein,0.0165 ± 0.0009 s⁻¹
same,Km,[4],12.27 ± 1.46 µM
same,kcat,[4],0.0577 ± 0.0025 s⁻¹
